Laboratory results reported in patent US7169789B2 (Kirin Beer Kabushiki Kaisha, priority 1999, dated 2007).

Columns and labels:
[1] = target: T1, human KDR (Homo sapiens, UniProt P35968); experiment: Inhibitory activity against KDR phosphorylation by ELISA; type: cell-based; details: NIH 3T3 cells transfected with human KDR, VEGF 100 ng/ml
T1 construct: expressed in transfected cells; host or cells: NIH 3T3 cells (Sawano A et al., Cell Growth & Differentiation 7, 213-221 (1996))

[2] = tested on: Human glioma cells GL07; experiment: Antitumor effect on human glioma cells (GL07) transplanted into nude mice; type: in vivo; details: Mus musculus, Glioma cell, 216 h, GL07, oral, 20 mg/kg once a day for 9 days, read-out: TGIR, % (tumor growth inhibition rate)
In short: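 GL07 xenografts in nude mice, grouped (n=4) at ~100 mm^3 tumor volume. Test compound 20 mg/kg p.o. or i.p. once daily for 9 days; vehicle controls. TGIR = (1−Tx/Cx)×100 from tumor volumes normalized to day-of-start volume = 1.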

T1 sequence (P35968 20-1356): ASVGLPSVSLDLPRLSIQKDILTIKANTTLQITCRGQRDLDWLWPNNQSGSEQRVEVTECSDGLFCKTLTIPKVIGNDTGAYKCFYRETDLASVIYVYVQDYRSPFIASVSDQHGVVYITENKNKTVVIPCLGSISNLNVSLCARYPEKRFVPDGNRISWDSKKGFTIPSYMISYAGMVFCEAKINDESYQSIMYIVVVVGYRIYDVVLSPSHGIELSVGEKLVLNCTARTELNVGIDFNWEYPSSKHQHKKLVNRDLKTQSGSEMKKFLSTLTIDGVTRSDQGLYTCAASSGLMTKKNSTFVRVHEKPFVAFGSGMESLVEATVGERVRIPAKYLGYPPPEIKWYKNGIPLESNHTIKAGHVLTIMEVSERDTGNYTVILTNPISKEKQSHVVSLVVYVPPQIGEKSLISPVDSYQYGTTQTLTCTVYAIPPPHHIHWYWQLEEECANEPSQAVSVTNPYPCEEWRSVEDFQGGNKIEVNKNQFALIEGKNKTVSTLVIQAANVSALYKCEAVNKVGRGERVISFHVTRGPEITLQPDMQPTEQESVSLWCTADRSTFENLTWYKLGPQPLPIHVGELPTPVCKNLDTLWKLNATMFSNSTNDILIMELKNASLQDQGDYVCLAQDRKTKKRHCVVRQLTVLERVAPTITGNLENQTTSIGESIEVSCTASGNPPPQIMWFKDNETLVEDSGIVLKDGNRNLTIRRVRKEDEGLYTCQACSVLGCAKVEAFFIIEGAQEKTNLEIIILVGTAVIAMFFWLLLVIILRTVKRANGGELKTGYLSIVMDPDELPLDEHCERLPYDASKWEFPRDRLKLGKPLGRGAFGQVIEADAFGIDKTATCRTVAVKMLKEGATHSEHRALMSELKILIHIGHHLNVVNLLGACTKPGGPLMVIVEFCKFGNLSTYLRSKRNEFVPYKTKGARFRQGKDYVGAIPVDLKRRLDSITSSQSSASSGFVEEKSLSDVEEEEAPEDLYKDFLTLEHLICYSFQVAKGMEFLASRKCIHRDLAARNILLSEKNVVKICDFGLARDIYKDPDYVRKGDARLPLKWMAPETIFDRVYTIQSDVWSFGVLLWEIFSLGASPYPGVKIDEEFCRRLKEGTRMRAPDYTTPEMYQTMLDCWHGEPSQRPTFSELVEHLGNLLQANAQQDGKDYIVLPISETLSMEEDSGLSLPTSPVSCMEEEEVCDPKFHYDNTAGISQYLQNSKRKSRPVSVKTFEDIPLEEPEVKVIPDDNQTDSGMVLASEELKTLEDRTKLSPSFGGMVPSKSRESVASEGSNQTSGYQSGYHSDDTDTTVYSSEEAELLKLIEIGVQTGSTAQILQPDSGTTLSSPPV

SMILES | IC50 [1] [nM] | inhibition in vivo at 20 mg/kg [2] [%]
COc1cc2c(Oc3cc(C)c(NC(=O)Nc4ccc(F)cc4F)cc3C)ccnc2cc1OCCn1ccnn1 [Example 177, N-(2,4-Difluorophenyl)-N′-[4-({6-methoxy-7-[2-(1H-1,2,3-triazol-1-yl)ethoxy]-4-guinolyl}oxy)-2,5-dimethylphenyl]urea] | 2.3 | 35
COc1cc2c(Oc3ccc(NC(=O)N(C)C)c(Cl)c3)ncnc2cc1OCCN1CCOCC1 [Example 178, N′-(2-Chloro-4-{[6-methoxy-7-(2-morpholinoethoxy)-4-quinazolinyl]oxy}phenyl)-N,N-dimethylurea] | > 1000 | 28
COc1cc2c(Oc3ccc(NC(=O)N(C)C)c(Cl)c3)ncnc2cc1OCCCCN1CCOCC1 [Example 179, N′-(2-Chloro-4-{[6-methoxy-7-(4-morpholinobutoxy)-4-quinazolinyl]oxy}phenyl)-N,N-dimethylurea] | > 1000 | 33
COc1cc2c(Oc3ccc(NC(=O)N(C)C)c(Cl)c3)ncnc2cc1OCc1ccncc1 [Example 180, N′-(2-Chloro-4-{[6-methoxy-7-(4-pyridylmethoxy)-4-quinazolinyl]oxy}phenyl)-N,N-dimethylurea] | > 1000 | 45
COC(=O)COc1cc2ncnc(Oc3ccc(NC(=O)N(C)C)c(Cl)c3)c2cc1OC [Example 181, Methyl 2-{[4-(3-chloro-4-{[(dimethylamino)carbonyl]amino}phenoxy)-6-methoxy-7-quinazolinyl]oxy}acetate] | > 1000 | 21
COc1cc2c(Oc3ccc(NC(=O)N(C)C)c(Cl)c3)ncnc2cc1OCCCN1CCN(C)CC1 [Example 182, N′-[2-Chloro-4-({6-methoxy-7-[3-(4-methylpiperazino)propoxy]-4-quinazolinyl}oxy)phenyl]-N,N-dimethylurea] | > 1000 | 31
COc1cc2c(Oc3ccc(NC(=O)N(C)C)c(Cl)c3)ncnc2cc1OCCCN(C)CCO [Example 183, N′-{2-Chloro-4-[(7-{3-[(2-hydroxyethyl)-(methyl)amino]propoxy}-6-methoxy-4-quinazolinyl)oxy]-phenyl}-N,N-dimethylurea] | > 1000 | 22
CNC(=O)Nc1ccc(Oc2ncnc3cc(OCCCN4CCCCC4)c(OC)cc23)cc1Cl [Example 184, N-(2-chloro-4-{[6-methoxy-7-(3-piperidinopropoxy)-4-quinazolinyl]oxy}phenyl)-N′-methylurea] | 0.2 | 48
CCNC(=O)Nc1ccc(Oc2ncnc3cc(OCCCN4CCCCC4)c(OC)cc23)cc1Cl [Example 185, N-(2-chloro-4-{[6-methoxy-7-(3-piperidinopropoxy)-4-quinazolinyl]oxy}phenyl)-N′-ethylurea] | 0.5 | 59
COc1cc2c(Oc3ccc(NC(=O)Nc4ccc(F)cc4F)c(Cl)c3)ccnc2cc1OCc1ccncc1 [Example 186, N-(2-chloro-4-{[6-methoxy-7-(4-pyridylmethoxy)-4-quinolyl]oxy}phenyl)-N′-(2,4-difluorophenyl)urea] | 6.3 | 47
